In test [1] the test system is IGROV-1. As to the kind of experiment: Cytotoxicity against human IGROV1 cells after 1 hr. It counts as functional, cell-based. The note with it: IGROV-1, 1 h.
Test [2] concerns NCI-H460. In words: Cytotoxicity against human H460 cells after 72 hrs. The note with it: NCI-H460, 72 h. In kind it is functional, cell-based.
Test [3] deals with IGROV-1. In words: Cytotoxicity against human IGROV1 cells after 72 hrs. In kind it is functional, cell-based. The note with it: IGROV-1, 72 h.
The subject of test [4] is HT-29. As to the kind of experiment: Cytotoxicity against human HT29 cells after 1 hr. Conditions: HT-29, 1 h. In kind it is functional, cell-based.
The subject of test [5] is HT-29. In words: Cytotoxicity against human mitoxantrone-resistant HT29 cells after 1 hr. In kind it is functional, cell-based. Conditions: HT-29, 1 h.
Another test is filed under the species Homo sapiens. In words: Stimulation of human recombinant topoisomerase 1B-mediated SV40 DNA cleavage.
Test [6] deals with NCI-H460. In words: Cytotoxicity against human H460 cells after 1 hr. It counts as functional, cell-based. The note with it: NCI-H460, 1 h.

Active and inactive are the calls of the source. The rule behind the calls is not given here.

In the case of `CC[C@@]1(O)C(=O)OCc2c1cc1n(c2=O)Cc2cc3ccccc3nc2-1` [CAMPTOTHECIN], the IC50 in the test on IGROV-1 [1] amounted to 1650 nM; in the test on NCI-H460 [2] it was 6.2 nM; in the test on IGROV-1 [3], 12 nM.
In the case of `CC[C@@]1(O)C(=O)OCc2c1cc1n(c2=S)Cc2cc3ccccc3nc2-1`, the IC50 turned out to be 170 nM in the test with HT-29 [4]; 220 nM in the test with IGROV-1 [1]; 7.4 nM in the test on NCI-H460 [2]; 110 nM in the test with HT-29 [5]; 140 nM with NCI-H460 [6]; 4.67 nM in the test with IGROV-1 [3]. Also, the outcome in the test filed under Homo sapiens was Active.

For the origin of these results see ChEMBL document CHEMBL1150278, “Thiocamptothecin” (J Med Chem, 2008).
